Data: ChEMBL document CHEMBL3046362, “Synthesis, antioxidant evaluation, and quantitative structureactivity relationship studies of chalcones” (Med Chem Res, 2011)
Calls of active or inactive are those of the source. The calls are words filed in the database; no cut-off is given here.

Tests used:
Format in all cases: functional
[1] = Antioxidant activity assessed as reducing power of potassium ferricyanide at 50 ug/ml after 20 min by spectrophotometry; parameters: scale not given: the % may be the effect or the level left
[2] = Antioxidant activity assessed as superoxide radical scavenging activity at 50 ug/ml after 10 min by NBT reduction assay
[3] = system: Radical scavenging activity; test: Antioxidant activity assessed as DPPH radical scavenging activity at 50 ug/ml after 20 min
[4] = Antioxidant activity assessed as hydrogen peroxide radical scavenging activity at 50 ug/ml after 10 min by spectrophotometry
[5] = system: Radical scavenging activity; test: Antioxidant activity assessed as DPPH radical scavenging activity at 100 to 250 ug/ml by EPR spectroscopy

## COc1ccc(/C=C/C(=O)c2cccc([N+](=O)[O-])c2)c(OC)c1
[1]
  Activity: 26.5%
[2]
  Activity: 23.1%
[3]
  Activity: 7.9%
[4]
  Activity: 5.91%

## CSc1ccc(/C=C/C(=O)c2ccccc2)cc1
[1]
  Activity: 19.8%
[2]
  Activity: 27.4%
[3]
  Activity: 10.2%
[4]
  Activity: 4.26%

## COc1ccc(/C=C/C(=O)c2cccc(O)c2)cc1
[1]
  Activity: 37.5%
[2]
  Activity: 62%
[3]
  Activity: 35.7%
[5]
  Activity: Active
[4]
  Activity: 42.8%

## COc1cc(/C=C/C(=O)c2ccccc2)cc(OC)c1OC
[1]
  Activity: 40.6%
[2]
  Activity: 28.9%
[3]
  Activity: 15.6%
[4]
  Activity: 22.7%

## Cc1cc(C(C)(C)C)c(O)c(C(C)(C)C)c1
[1]
  Activity: 56.1%
[2]
  Activity: 79.1%
[3]
  Activity: 26.4%
[4]
  Activity: 42.6%

## COc1ccccc1/C=C/C(=O)c1cccc([N+](=O)[O-])c1
[1]
  Activity: 22.4%
[2]
  Activity: 5.39%
[3]
  Activity: 6.93%
[4]
  Activity: 24.3%

## COc1ccc(/C=C/C(=O)c2cccc([N+](=O)[O-])c2)cc1OC
[1]
  Activity: 43.5%
[2]
  Activity: 53.4%
[3]
  Activity: 15.4%
[4]
  Activity: 35.9%

## CSc1ccc(/C=C/C(=O)c2cccc([N+](=O)[O-])c2)cc1
[1]
  Activity: 27.2%
[2]
  Activity: 39.7%
[3]
  Activity: 15.3%
[4]
  Activity: 46.4%

## CSc1ccc(/C=C/C(=O)c2ccc(C)cc2)cc1
[1]
  Activity: 23.8%
[2]
  Activity: 23.1%
[3]
  Activity: 3.16%
[4]
  Activity: 31.7%

## CSc1ccc(/C=C/C(=O)c2ccc(Br)cc2)cc1
[1]
  Activity: 18.8%
[2]
  Activity: 18%
[3]
  Activity: 18%
[4]
  Activity: 49.7%

## CSc1ccc(/C=C/C(=O)c2ccc(O)cc2)cc1
[1]
  Activity: 46%
[2]
  Activity: 52.6%
[3]
  Activity: 28.9%
[4]
  Activity: 23.8%

## CSc1ccc(/C=C/C(=O)c2ccc(Cl)cc2Cl)cc1
[1]
  Activity: 10.1%
[2]
  Activity: 30.9%
[3]
  Activity: 4.07%
[4]
  Activity: 17.4%

## COc1ccc(/C=C/C(=O)c2ccc(C)cc2)cc1
[1]
  Activity: 23.1%
[2]
  Activity: 15.4%
[3]
  Activity: 1.3%
[4]
  Activity: 4.54%

## COc1ccc(/C=C/C(=O)c2ccc(Cl)cc2Cl)cc1OC
[1]
  Activity: 33.8%
[2]
  Activity: 32.6%
[3]
  Activity: 15.7%
[4]
  Activity: 23.8%

## CSc1ccc(/C=C/C(=O)c2cccc(O)c2)cc1
[1]
  Activity: 51.6%
[2]
  Activity: 53.3%
[3]
  Activity: 21.2%
[4]
  Activity: 28.7%

## CN(C)c1ccc(/C=C/C(=O)c2cccc([N+](=O)[O-])c2)cc1
[1]
  Activity: 28.6%
[2]
  Activity: 39%
[3]
  Activity: 18.6%
[4]
  Activity: 17.4%

## COc1ccccc1/C=C/C(=O)c1ccccc1
[1]
  Activity: 21.8%
[2]
  Activity: 18.6%
[3]
  Activity: 0.98%
[4]
  Activity: 4.54%

## CN(C)c1ccc(/C=C/C(=O)c2ccccc2)cc1
[1]
  Activity: 9.52%
[2]
  Activity: 13.8%
[3]
  Activity: 8.08%
[4]
  Activity: 12.1%

## CN(C)c1ccc(/C=C/C(=O)c2ccc(Cl)cc2Cl)cc1
[1]
  Activity: 22%
[2]
  Activity: 10.9%
[3]
  Activity: 12.9%
[4]
  Activity: 32.6%

## O=C(/C=C/c1ccccc1)c1ccccc1
[1]
  Activity: 42.4%
[2]
  Activity: 32.6%
[3]
  Activity: 18.6%
[4]
  Activity: 25.4%

## COc1ccc(/C=C/C(=O)c2ccccc2)cc1
[1]
  Activity: 21.2%
[2]
  Activity: 21.3%
[3]
  Activity: 5.34%
[4]
  Activity: 12.3%

## CSc1ccc(/C=C/C(=O)c2ccc([N+](=O)[O-])cc2)cc1
[1]
  Activity: 3.17%
[2]
  Activity: 17.4%
[3]
  Activity: 15.9%
[4]
  Activity: 4.61%

## CSc1ccc(/C=C/C(=O)c2ccccc2O)cc1
[1]
  Activity: 46.7%
[2]
  Activity: 50.2%
[3]
  Activity: 15.4%
[4]
  Activity: 33.3%

## COc1ccc(C(=O)/C=C/c2ccc(SC)cc2)cc1
[1]
  Activity: 24.3%
[2]
  Activity: 17.8%
[3]
  Activity: 2.64%
[4]
  Activity: 29.5%

## COc1ccccc1/C=C/C(=O)c1ccc([N+](=O)[O-])cc1
[1]
  Activity: 32.8%
[2]
  Activity: 34.5%
[3]
  Activity: 7%
[4]
  Activity: 61.3%

## CSc1ccc(/C=C/C(=O)c2ccc(Cl)cc2)cc1
[1]
  Activity: 30.9%
[2]
  Activity: 41.4%
[3]
  Activity: 23.2%
[4]
  Activity: 43.5%

## O=C1O[C@H]([C@@H](O)CO)C(O)=C1O
[1]
  Activity: 22.6%
[2]
  Activity: 82.9%
[3]
  Activity: 28%
[4]
  Activity: 78.3%
